# What was measured:
# Assay in all cases: KINOMEscan Max
# Assay type in all cases: binding
# ABL1-nonphosphorylated = ABL1-nonphosphorylated (Homo sapiens, UniProt P00519)
# Method: (§1) Kinase panel profiling was performed at Ambit Kinomescan (http://www.ambitbio.com/technology/) using the “KINOMEscan™ Max” assay platform, a high-throughput method for screening small molecule compounds against large numbers of human kinases. KINOMEscan™ is based on a competition binding assay that quantitatively measures the ability of a compound to compete with an immobilized, active-site directed ligand. The assay is performed by combining three components: DNA-tagged kinase; immobilized ligand; and a test compound. The ability of the test compound to compete with the immobilized ligand is measured via quantitative PCR of the DNA tag. For a description of Ambit's assay protocol, see Fabian et al. A small molecule-kinase interaction map for clinical kinase inhibitors. Nat. Biotechnol. 23, 329-336 (2005).
# ADCK3 = ADCK3 (Homo sapiens, UniProt Q8NI60)
# Method: as §1
# ALK = molecular target: T1, ALK (Homo sapiens, UniProt Q9UM73)
# T1 construct: DNA tag (qPCR label); purchased Ambit Kinomescan (contract screening)
# Method: as §1
# CAMK1D = molecular target: T2, CAMK1D (Homo sapiens, UniProt Q8IU85)
# T2 construct: DNA tag (qPCR label); purchased Ambit Kinomescan (contract screening)
# Method: as §1
# CAMK2B = molecular target: T3, CAMK2B (Homo sapiens, UniProt Q13554)
# T3 construct: purchased Ambit Kinomescan (contract screening)
# Method: as §1
# CAMK2D = molecular target: T4, CAMK2D (Homo sapiens, UniProt Q13557)
# T4 construct: DNA tag (qPCR label); purchased Ambit Kinomescan (contract screening)
# Method: as §1
# CDK4-cyclinD1 = molecular target: T5, CDK4-cyclinD1 (Homo sapiens, UniProt P11802)
# T5 construct: DNA tag (qPCR label); purchased Ambit Kinomescan (contract screening)
# Method: as §1
# CDK9 = molecular target: T6, CDK9 (Homo sapiens, UniProt P50750)
# T6 construct: DNA tag (qPCR read-out)
# Method: as §1
# CDKL2 = molecular target: T7, CDKL2 (Homo sapiens, UniProt Q92772)
# T7 construct: purchased Ambit (KINOMEscan Max service)
# Method: as §1
# DCAMKL1 = DCAMKL1 (Homo sapiens, UniProt O15075); details: 1 μM
# Method: as §1
# DMPK2 = DMPK2 (Homo sapiens, UniProt Q6DT37)
# Method: as §1
# DRAK2 = molecular target: T8, DRAK2 (Homo sapiens, UniProt O94768)
# T8 construct: purchased Ambit (KINOMEscan Max panel service)
# Method: as §1
# EGFR(G719C) = molecular target: T9, EGFR(G719C) (Homo sapiens, UniProt P00533, G719C); details: 1 μM
# T9 construct: purchased Ambit (KINOMEscan Max panel service)
# Method: as §1
# EGFR(L861Q) = EGFR(L861Q) (Homo sapiens, UniProt P00533, L861Q); details: 1 μM
# Method: as §1
# EPHA8 = molecular target: T10, EPHA8 (Homo sapiens, UniProt P29322)
# T10 construct: purchased Ambit (KINOMEscan Max service)
# Method: as §1
# ERBB3 = molecular target: T11, ERBB3 (Homo sapiens, UniProt P21860)
# T11 construct: purchased Ambit (KINOMEscan Max service)
# Method: as §1
# ERK1 = molecular target: T12, ERK1 (Homo sapiens, UniProt P27361)
# T12 construct: purchased Ambit Kinomescan (contract panel, KINOMEscan Max)
# Method: as §1
# FAK = molecular target: T13, FAK (Homo sapiens, UniProt Q05397)
# T13 construct: DNA tag (qPCR read-out)
# Method: as §1
# INSR = molecular target: T14, INSR (Homo sapiens, UniProt P06213)
# T14 construct: DNA tag (qPCR read-out)
# Method: as §1
# IRAK1 = molecular target: T15, IRAK1 (Homo sapiens, UniProt P51617)
# T15 construct: DNA tag (qPCR read-out)
# Method: as §1
# KIT(D816V) = molecular target: T16, KIT(D816V) (Homo sapiens, UniProt P10721, D816V)
# T16 construct: purchased Ambit (KINOMEscan Max service)
# Method: as §1
# MAP3K2 = molecular target: T17, MAP3K2 (Homo sapiens, UniProt Q9Y2U5)
# T17 construct: purchased Ambit Kinomescan (contract panel)
# Method: as §1
# MEK4 = molecular target: T18, MEK4 (Homo sapiens, UniProt P45985)
# T18 construct: purchased Ambit (KINOMEscan Max service)
# Method: as §1
# MRCKB = MRCKB (Homo sapiens, UniProt Q9Y5S2)
# Method: as §1
# MYO3A = MYO3A (Homo sapiens, UniProt Q8NEV4)
# Method: as §1
# NEK9 = NEK9 (Homo sapiens, UniProt Q8TD19)
# Method: as §1
# PIK3CB = molecular target: T19, PIK3CB (Homo sapiens, UniProt P42338)
# T19 construct: DNA tag (qPCR read-out)
# Method: as §1
# PIK3CD = molecular target: T20, PIK3CD (Homo sapiens, UniProt O00329)
# T20 construct: DNA tag (qPCR read-out)
# Method: as §1
# PIK4CB = molecular target: T21, PIK4CB (Homo sapiens, UniProt Q9UBF8)
# T21 construct: DNA tag (qPCR read-out)
# Method: as §1
# [1] = molecular target: T22, RSK4(Kin.Dom.2-C-terminal) (Homo sapiens, UniProt Q9UK32); details: 1 μM
# T22 construct: RSK4(Kin.Dom.2-C-terminal); DNA tag (qPCR read-out)
# Method: as §1
# STK39 = molecular target: T23, STK39 (Homo sapiens, UniProt Q9UEW8)
# T23 construct: DNA tag (qPCR read-out)
# Method: as §1
# VRK2 = VRK2 (Homo sapiens, UniProt Q86Y07)
# Method: as §1
# WEE1 = WEE1 (Homo sapiens, UniProt P30291)
# Method: as §1
# ZAK = ZAK (Homo sapiens, UniProt Q9NYL2)
# Method: as §1
# p38-gamma = p38-gamma (Homo sapiens, UniProt P53778)
# Method: as §1
# T21 sequence (Q9UBF8 whole entry): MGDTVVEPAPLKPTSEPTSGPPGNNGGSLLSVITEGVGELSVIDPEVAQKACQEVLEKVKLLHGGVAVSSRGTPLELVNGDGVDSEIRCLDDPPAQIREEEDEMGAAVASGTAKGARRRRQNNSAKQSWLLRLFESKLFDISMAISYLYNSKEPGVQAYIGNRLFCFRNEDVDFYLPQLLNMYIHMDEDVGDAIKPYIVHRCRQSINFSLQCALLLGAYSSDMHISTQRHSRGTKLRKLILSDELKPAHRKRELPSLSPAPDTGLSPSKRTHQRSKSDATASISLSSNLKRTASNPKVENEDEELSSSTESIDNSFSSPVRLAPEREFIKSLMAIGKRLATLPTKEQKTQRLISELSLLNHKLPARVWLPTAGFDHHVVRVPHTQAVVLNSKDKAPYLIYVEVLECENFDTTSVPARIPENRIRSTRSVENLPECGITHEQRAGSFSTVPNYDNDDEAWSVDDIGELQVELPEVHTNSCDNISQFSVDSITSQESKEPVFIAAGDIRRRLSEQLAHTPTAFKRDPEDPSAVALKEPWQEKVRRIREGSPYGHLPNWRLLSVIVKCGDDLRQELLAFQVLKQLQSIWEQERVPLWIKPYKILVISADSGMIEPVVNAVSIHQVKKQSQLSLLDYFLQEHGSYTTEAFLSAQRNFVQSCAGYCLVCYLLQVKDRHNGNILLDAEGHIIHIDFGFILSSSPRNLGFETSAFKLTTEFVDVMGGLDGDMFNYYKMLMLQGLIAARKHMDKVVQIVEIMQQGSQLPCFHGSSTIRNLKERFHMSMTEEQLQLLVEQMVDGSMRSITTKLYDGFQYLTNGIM
# T5 sequence (P11802 whole entry): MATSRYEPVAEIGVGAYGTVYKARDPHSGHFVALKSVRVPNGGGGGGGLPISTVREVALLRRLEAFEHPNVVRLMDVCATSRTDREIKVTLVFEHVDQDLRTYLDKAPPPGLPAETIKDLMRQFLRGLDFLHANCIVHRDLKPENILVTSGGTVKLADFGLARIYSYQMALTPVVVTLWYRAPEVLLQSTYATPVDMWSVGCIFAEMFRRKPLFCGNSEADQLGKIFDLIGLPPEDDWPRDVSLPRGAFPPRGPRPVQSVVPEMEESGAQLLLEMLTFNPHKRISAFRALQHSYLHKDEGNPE
# T5 sequence (P24385 whole entry partner): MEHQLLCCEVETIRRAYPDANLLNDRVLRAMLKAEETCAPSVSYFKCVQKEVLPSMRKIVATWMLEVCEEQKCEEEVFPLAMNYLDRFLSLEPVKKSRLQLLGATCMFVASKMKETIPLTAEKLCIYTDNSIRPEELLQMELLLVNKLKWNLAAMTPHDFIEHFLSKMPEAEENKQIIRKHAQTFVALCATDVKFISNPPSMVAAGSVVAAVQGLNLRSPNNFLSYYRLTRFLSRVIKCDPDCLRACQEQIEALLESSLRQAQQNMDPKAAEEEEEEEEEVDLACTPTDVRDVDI
# MYO3A, sequence (Q8NEV4 whole entry): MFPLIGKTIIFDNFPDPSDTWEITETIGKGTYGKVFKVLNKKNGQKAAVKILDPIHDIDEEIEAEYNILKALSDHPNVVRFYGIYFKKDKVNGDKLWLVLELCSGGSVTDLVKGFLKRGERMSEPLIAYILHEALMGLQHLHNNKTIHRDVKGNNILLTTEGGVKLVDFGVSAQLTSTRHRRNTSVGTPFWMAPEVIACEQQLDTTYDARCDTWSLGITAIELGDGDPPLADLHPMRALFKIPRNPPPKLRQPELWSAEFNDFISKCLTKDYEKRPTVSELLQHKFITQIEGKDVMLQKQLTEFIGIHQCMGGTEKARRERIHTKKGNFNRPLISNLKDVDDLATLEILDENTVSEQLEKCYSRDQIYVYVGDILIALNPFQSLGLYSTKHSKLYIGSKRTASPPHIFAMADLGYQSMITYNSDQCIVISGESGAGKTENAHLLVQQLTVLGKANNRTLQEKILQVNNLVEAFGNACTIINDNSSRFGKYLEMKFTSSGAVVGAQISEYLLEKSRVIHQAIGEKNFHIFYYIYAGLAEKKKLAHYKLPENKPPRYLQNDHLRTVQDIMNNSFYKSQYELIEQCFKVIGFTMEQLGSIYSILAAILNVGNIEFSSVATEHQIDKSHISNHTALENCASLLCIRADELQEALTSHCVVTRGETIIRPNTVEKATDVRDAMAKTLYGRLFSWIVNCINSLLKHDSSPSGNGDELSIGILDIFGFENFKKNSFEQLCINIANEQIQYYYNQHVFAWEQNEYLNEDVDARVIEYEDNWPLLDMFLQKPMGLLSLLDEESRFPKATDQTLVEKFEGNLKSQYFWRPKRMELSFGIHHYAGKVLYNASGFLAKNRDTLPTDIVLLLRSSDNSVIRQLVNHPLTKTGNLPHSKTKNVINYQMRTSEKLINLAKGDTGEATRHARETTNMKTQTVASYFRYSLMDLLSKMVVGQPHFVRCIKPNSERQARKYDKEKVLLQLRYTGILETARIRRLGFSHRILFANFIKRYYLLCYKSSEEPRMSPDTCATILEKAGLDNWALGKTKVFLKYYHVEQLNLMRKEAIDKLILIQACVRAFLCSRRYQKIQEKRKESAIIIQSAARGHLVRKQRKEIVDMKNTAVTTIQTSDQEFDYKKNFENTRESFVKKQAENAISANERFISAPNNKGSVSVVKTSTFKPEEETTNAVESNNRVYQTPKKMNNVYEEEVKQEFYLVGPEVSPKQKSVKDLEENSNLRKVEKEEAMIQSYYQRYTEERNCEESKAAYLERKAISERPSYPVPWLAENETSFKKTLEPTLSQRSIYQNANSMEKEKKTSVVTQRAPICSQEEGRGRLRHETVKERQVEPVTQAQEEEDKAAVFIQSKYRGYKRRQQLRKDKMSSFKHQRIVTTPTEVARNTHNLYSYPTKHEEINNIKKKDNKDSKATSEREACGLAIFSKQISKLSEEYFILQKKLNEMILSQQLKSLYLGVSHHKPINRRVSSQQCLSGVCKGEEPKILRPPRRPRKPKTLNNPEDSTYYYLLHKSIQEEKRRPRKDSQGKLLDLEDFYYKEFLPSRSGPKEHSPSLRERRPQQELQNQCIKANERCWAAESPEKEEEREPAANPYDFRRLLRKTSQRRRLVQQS
# T4 sequence (Q13557 whole entry): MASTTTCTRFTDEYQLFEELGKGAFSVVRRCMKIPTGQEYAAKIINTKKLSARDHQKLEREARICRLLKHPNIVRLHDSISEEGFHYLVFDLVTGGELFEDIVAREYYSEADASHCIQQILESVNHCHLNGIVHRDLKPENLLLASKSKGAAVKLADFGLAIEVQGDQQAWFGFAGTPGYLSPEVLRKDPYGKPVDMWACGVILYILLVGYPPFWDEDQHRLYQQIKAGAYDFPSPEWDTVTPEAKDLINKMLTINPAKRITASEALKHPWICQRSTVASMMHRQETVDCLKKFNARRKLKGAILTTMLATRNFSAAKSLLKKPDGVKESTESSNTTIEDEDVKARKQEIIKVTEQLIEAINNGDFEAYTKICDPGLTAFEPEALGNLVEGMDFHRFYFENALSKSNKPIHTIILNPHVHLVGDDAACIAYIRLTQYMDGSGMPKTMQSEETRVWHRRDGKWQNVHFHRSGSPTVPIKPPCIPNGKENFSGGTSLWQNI
# EGFR(L861Q), sequence (P00533 25-1210 L861Q): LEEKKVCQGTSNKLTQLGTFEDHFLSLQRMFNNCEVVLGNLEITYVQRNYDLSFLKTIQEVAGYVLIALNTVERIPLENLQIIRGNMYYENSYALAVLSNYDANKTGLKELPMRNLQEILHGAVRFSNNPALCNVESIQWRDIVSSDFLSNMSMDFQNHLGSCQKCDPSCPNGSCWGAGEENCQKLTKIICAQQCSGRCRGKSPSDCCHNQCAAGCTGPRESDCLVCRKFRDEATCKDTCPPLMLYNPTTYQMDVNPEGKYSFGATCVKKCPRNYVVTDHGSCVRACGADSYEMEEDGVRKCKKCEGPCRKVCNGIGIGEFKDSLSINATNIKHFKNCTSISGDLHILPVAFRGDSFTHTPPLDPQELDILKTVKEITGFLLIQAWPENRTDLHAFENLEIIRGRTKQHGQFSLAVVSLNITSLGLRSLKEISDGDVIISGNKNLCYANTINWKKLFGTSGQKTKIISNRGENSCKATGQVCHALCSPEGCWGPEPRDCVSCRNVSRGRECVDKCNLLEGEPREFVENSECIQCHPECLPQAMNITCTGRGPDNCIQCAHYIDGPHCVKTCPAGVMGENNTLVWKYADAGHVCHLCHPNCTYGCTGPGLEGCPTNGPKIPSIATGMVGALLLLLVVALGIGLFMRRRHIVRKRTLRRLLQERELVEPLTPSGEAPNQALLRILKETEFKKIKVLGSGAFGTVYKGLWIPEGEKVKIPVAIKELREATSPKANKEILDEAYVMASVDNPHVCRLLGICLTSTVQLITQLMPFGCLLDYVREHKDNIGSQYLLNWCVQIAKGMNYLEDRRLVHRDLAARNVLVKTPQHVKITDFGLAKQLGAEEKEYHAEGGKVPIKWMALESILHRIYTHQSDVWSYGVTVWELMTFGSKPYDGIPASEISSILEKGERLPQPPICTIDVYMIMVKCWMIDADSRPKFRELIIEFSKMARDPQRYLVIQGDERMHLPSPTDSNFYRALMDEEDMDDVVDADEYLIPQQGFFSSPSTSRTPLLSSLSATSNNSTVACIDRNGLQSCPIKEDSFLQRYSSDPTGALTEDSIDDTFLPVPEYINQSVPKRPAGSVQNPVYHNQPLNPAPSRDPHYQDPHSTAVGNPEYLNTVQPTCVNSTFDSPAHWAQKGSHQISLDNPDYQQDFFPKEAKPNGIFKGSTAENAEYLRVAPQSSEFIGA
# T22 sequence (Q9UK32 426-683 limits assumed): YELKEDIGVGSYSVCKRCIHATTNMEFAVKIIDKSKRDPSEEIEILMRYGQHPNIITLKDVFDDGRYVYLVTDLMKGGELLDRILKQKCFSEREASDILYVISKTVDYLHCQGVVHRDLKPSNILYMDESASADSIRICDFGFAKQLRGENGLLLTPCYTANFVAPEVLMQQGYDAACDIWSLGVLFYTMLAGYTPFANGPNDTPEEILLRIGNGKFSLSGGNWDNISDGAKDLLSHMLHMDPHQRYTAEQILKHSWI
structure (smiles),measurement,setting,value
"NCCCNc1nc2c(Br)c(Br)c(Br)c(Br)c2[nH]1 [Compound 11, N-(3-aminopropyl)-4,5,6,7-tetrabromo-1H-benzo[d]imidazol-2-amine]",remaining binding at 1 µM,ABL1-nonphosphorylated,100%
same,remaining binding at 1 µM,ADCK3,76%
same,remaining binding at 1 µM,ALK,100%
same,remaining binding at 1 µM,CAMK1D,100%
same,remaining binding at 1 µM,CAMK2B,97%
same,remaining binding at 1 µM,CAMK2D,100%
same,remaining binding at 1 µM,CDK4-cyclinD1,100%
same,remaining binding at 1 µM,CDK9,90%
same,remaining binding at 1 µM,CDKL2,85%
same,% binding,DCAMKL1,96%
same,remaining binding at 1 µM,DMPK2,96%
same,remaining binding at 1 µM,DRAK2,100%
same,% binding,EGFR(G719C),100%
same,% binding,EGFR(L861Q),96%
same,remaining binding at 1 µM,EPHA8,86%
same,remaining binding at 1 µM,ERBB3,68%
same,remaining binding at 1 µM,ERK1,100%
same,remaining binding at 1 µM,FAK,89%
same,remaining binding at 1 µM,INSR,41%
same,remaining binding at 1 µM,IRAK1,52%
same,remaining binding at 1 µM,KIT(D816V),60%
same,remaining binding at 1 µM,MAP3K2,100%
same,remaining binding at 1 µM,MEK4,82%
same,remaining binding at 1 µM,MRCKB,100%
same,remaining binding at 1 µM,MYO3A,100%
same,remaining binding at 1 µM,NEK9,95%
same,remaining binding at 1 µM,PIK3CB,100%
same,remaining binding at 1 µM,PIK3CD,100%
same,remaining binding at 1 µM,PIK4CB,100%
same,% binding,[1],100%
same,remaining binding at 1 µM,STK39,100%
same,remaining binding at 1 µM,VRK2,79%
same,remaining binding at 1 µM,WEE1,91%
same,remaining binding at 1 µM,ZAK,98%
same,remaining binding at 1 µM,p38-gamma,76%
